ChEMBL document CHEMBL5042512 (Eur J Med Chem, 2022)

system: MGC-803; test: Antiproliferative activity against human MGC-803 cells assessed as cell growth inhibition measured after 48 hrs by CCK8 assay; assay type: functional, cell-based; conditions: MGC-803, 48 h

Structure (SMILES) | IC50 [µM]
COc1ccc(CN(C(=O)CN2CCOCC2)c2cc(OC)c(OC)c(OC)c2)cc1 | 16.9
COc1cc(N(Cc2ccc(C)cc2)C(=O)CSC(=S)N2CCN(C(=O)OC(C)(C)C)CC2)cc(OC)c1OC | 16.7
COc1ccc(CN(C(=O)CSC(=S)N2CCN(C(=O)OC(C)(C)C)CC2)c2cc(OC)c(OC)c(OC)c2)cc1F | 4.87
COc1cc(NC(=O)CSC(=S)N2CCN(C(=O)OC(C)(C)C)CC2)c(Cc2ccccc2)c(OC)c1OC | > 20
COc1ccc(CN(C(=O)CSC(=S)N2CCN(C(=O)OC(C)(C)C)CC2)c2cc(OC)c(OC)c(OC)c2)cc1 | 0.31
COc1ccc(CN(C(=O)CN2CCN(C(=O)OC(C)(C)C)CC2)c2cc(OC)c(OC)c(OC)c2)cc1 | 9.5
COc1ccc(CN(C(=O)CSC(=S)N2CCN(C)CC2)c2cc(OC)c(OC)c(OC)c2)cc1O | 0.86
CCN1CCN(C(=S)SCC(=O)N(Cc2ccc(OC)c(O)c2)c2cc(OC)c(OC)c(OC)c2)CC1 | 0.38
COc1ccc(CN(C(=O)CSC(=S)N2CCc3ccccc3C2)c2cc(OC)c(OC)c(OC)c2)cc1 | 5.94
COc1ccc(CN(C(=O)CSC(=S)N2CCN(C(=O)OC(C)(C)C)CC2)c2cc(OC)c(OC)c(OC)c2)cc1C | > 20
COc1ccc(CN(C(=O)CSC(=S)N2CCN(C(=O)OC(C)(C)C)CC2)c2ccc(Br)cc2)cc1 | > 20
CCN1CCN(CC(=O)N(Cc2ccc(OC)cc2)c2cc(OC)c(OC)c(OC)c2)CC1 | > 20
COc1ccc(CN(C(=O)CSC(=S)N2CCN(C(=O)OC(C)(C)C)CC2)c2ccccc2)cc1 | > 20
COc1ccc(CN(C(=O)CSC(=S)N2CCc3cc(OC)ccc32)c2cc(OC)c(OC)c(OC)c2)cc1 | 11.7
COc1ccc(CN(C(=O)CSC(=S)N2CCN(C(=O)OC(C)(C)C)CC2)c2cc(OC)c(OC)c(OC)c2)cc1OC | > 20
COc1ccc(CN(C(=O)CSC(=S)N2CCN(C(=O)OC(C)(C)C)CC2)c2ccc(C)cc2)cc1 | > 20
COc1ccc(CN(C(=O)CSC(=S)N2CCN(C(=O)OC(C)(C)C)CC2)c2cc(OC)c(OC)c(OC)c2)cc1Br | 3.71
COc1ccc(CN(C(=O)CSC(=S)N2CCN(C(=O)OC(C)(C)C)CC2)c2cc(OC)c(OC)c(OC)c2)cc1N | 0.184
COc1cc(N(Cc2ccc(Cl)cc2)C(=O)CSC(=S)N2CCN(C(=O)OC(C)(C)C)CC2)cc(OC)c1OC | 12.9

system: KYSE-450; test: Antiproliferative activity against human KYSE-450 cells assessed as cell growth inhibition measured after 48 hrs by CCK8 assay; assay type: functional, cell-based; conditions: KYSE-450, 48 h

Structure (SMILES) | IC50 [µM]
COc1ccc(CN(C(=O)CN2CCOCC2)c2cc(OC)c(OC)c(OC)c2)cc1 | 18.9
COc1cc(N(Cc2ccc(C)cc2)C(=O)CSC(=S)N2CCN(C(=O)OC(C)(C)C)CC2)cc(OC)c1OC | > 20
COc1ccc(CN(C(=O)CSC(=S)N2CCN(C(=O)OC(C)(C)C)CC2)c2cc(OC)c(OC)c(OC)c2)cc1F | 2.41
COc1cc(NC(=O)CSC(=S)N2CCN(C(=O)OC(C)(C)C)CC2)c(Cc2ccccc2)c(OC)c1OC | > 20
COc1ccc(CN(C(=O)CSC(=S)N2CCN(C(=O)OC(C)(C)C)CC2)c2cc(OC)c(OC)c(OC)c2)cc1 | 0.25
COc1ccc(CN(C(=O)CN2CCN(C(=O)OC(C)(C)C)CC2)c2cc(OC)c(OC)c(OC)c2)cc1 | 8.17
COc1ccc(CN(C(=O)CSC(=S)N2CCN(C)CC2)c2cc(OC)c(OC)c(OC)c2)cc1O | 0.76
CCN1CCN(C(=S)SCC(=O)N(Cc2ccc(OC)c(O)c2)c2cc(OC)c(OC)c(OC)c2)CC1 | 0.32
COc1ccc(CN(C(=O)CSC(=S)N2CCc3ccccc3C2)c2cc(OC)c(OC)c(OC)c2)cc1 | > 20
COc1ccc(CN(C(=O)CSC(=S)N2CCN(C(=O)OC(C)(C)C)CC2)c2cc(OC)c(OC)c(OC)c2)cc1C | > 20
COc1ccc(CN(C(=O)CSC(=S)N2CCN(C(=O)OC(C)(C)C)CC2)c2ccc(Br)cc2)cc1 | > 20
CCN1CCN(CC(=O)N(Cc2ccc(OC)cc2)c2cc(OC)c(OC)c(OC)c2)CC1 | 16.1
COc1ccc(CN(C(=O)CSC(=S)N2CCN(C(=O)OC(C)(C)C)CC2)c2ccccc2)cc1 | > 20
COc1ccc(CN(C(=O)CSC(=S)N2CCc3cc(OC)ccc32)c2cc(OC)c(OC)c(OC)c2)cc1 | 10.2
COc1ccc(CN(C(=O)CSC(=S)N2CCN(C(=O)OC(C)(C)C)CC2)c2cc(OC)c(OC)c(OC)c2)cc1OC | > 20
COc1ccc(CN(C(=O)CSC(=S)N2CCN(C(=O)OC(C)(C)C)CC2)c2ccc(C)cc2)cc1 | > 20
COc1ccc(CN(C(=O)CSC(=S)N2CCN(C(=O)OC(C)(C)C)CC2)c2cc(OC)c(OC)c(OC)c2)cc1Br | 1.85
COc1ccc(CN(C(=O)CSC(=S)N2CCN(C(=O)OC(C)(C)C)CC2)c2cc(OC)c(OC)c(OC)c2)cc1N | 0.208
COc1cc(N(Cc2ccc(Cl)cc2)C(=O)CSC(=S)N2CCN(C(=O)OC(C)(C)C)CC2)cc(OC)c1OC | 11.9

system: HCT-116; test: Antiproliferative activity against human HCT-116 cells assessed as cell growth inhibition measured after 48 hrs by CCK8 assay; assay type: functional, cell-based; conditions: HCT-116, 48 h

Structure (SMILES) | IC50 [µM]
COc1ccc(CN(C(=O)CN2CCOCC2)c2cc(OC)c(OC)c(OC)c2)cc1 | > 20
COc1cc(N(Cc2ccc(C)cc2)C(=O)CSC(=S)N2CCN(C(=O)OC(C)(C)C)CC2)cc(OC)c1OC | > 20
COc1ccc(CN(C(=O)CSC(=S)N2CCN(C(=O)OC(C)(C)C)CC2)c2cc(OC)c(OC)c(OC)c2)cc1F | 8.21
COc1cc(NC(=O)CSC(=S)N2CCN(C(=O)OC(C)(C)C)CC2)c(Cc2ccccc2)c(OC)c1OC | 16
COc1ccc(CN(C(=O)CSC(=S)N2CCN(C(=O)OC(C)(C)C)CC2)c2cc(OC)c(OC)c(OC)c2)cc1 | 0.62
COc1ccc(CN(C(=O)CN2CCN(C(=O)OC(C)(C)C)CC2)c2cc(OC)c(OC)c(OC)c2)cc1 | 18.1
COc1ccc(CN(C(=O)CSC(=S)N2CCN(C)CC2)c2cc(OC)c(OC)c(OC)c2)cc1O | 0.81
CCN1CCN(C(=S)SCC(=O)N(Cc2ccc(OC)c(O)c2)c2cc(OC)c(OC)c(OC)c2)CC1 | 0.53
COc1ccc(CN(C(=O)CSC(=S)N2CCc3ccccc3C2)c2cc(OC)c(OC)c(OC)c2)cc1 | 15.9
COc1ccc(CN(C(=O)CSC(=S)N2CCN(C(=O)OC(C)(C)C)CC2)c2cc(OC)c(OC)c(OC)c2)cc1C | > 20
COc1ccc(CN(C(=O)CSC(=S)N2CCN(C(=O)OC(C)(C)C)CC2)c2ccc(Br)cc2)cc1 | > 20
CCN1CCN(CC(=O)N(Cc2ccc(OC)cc2)c2cc(OC)c(OC)c(OC)c2)CC1 | > 20
COc1ccc(CN(C(=O)CSC(=S)N2CCN(C(=O)OC(C)(C)C)CC2)c2ccccc2)cc1 | > 20
COc1ccc(CN(C(=O)CSC(=S)N2CCc3cc(OC)ccc32)c2cc(OC)c(OC)c(OC)c2)cc1 | 9.81
COc1ccc(CN(C(=O)CSC(=S)N2CCN(C(=O)OC(C)(C)C)CC2)c2cc(OC)c(OC)c(OC)c2)cc1OC | > 20
COc1ccc(CN(C(=O)CSC(=S)N2CCN(C(=O)OC(C)(C)C)CC2)c2ccc(C)cc2)cc1 | > 20
COc1ccc(CN(C(=O)CSC(=S)N2CCN(C(=O)OC(C)(C)C)CC2)c2cc(OC)c(OC)c(OC)c2)cc1Br | 9.71
COc1ccc(CN(C(=O)CSC(=S)N2CCN(C(=O)OC(C)(C)C)CC2)c2cc(OC)c(OC)c(OC)c2)cc1N | 0.352
COc1cc(N(Cc2ccc(Cl)cc2)C(=O)CSC(=S)N2CCN(C(=O)OC(C)(C)C)CC2)cc(OC)c1OC | 8.49
